In ChEMBL document CHEMBL4396971, “Discovery of potent and orally bioavailable indazole-based glucagon receptor antagonists for the treatment of type 2 diabetes” (Bioorg Med Chem Lett, 2019):
Values belong to the compound of their own block, whether it stands above or below them. The source made the active and inactive calls. The calls are words filed in the database; no cut-off is given here.

What was measured:
[1] = Stability in human liver microsomes assessed as parent compound remaining at 1 uM incubated for 10 mins; assay type: ADME, Microsome; details: read-out: Stability
[2] = Stability in rat liver microsomes assessed as parent compound remaining at 1 uM incubated for 10 mins; assay type: ADME, Microsome; details: read-out: Stability
[3] = Stability in mouse liver microsomes assessed as parent compound remaining at 1 uM incubated for 10 mins; assay type: ADME, Microsome; details: for remaining at 10 min, 1 µM: liver microsomes, read-out: Stability
[4] = Stability in dog liver microsomes assessed as parent compound remaining at 1 uM incubated for 10 mins; assay type: ADME, Canis lupus familiaris, Microsome; details: liver microsomes, read-out: Stability
[5] = Clearance in C57 mouse at 5 mg/kg, iv or 20 mg/kg, po; assay type: ADME, organism-based; details: in vivo
[6] = Half life in dog at 10 mg/kg, po; assay type: ADME, organism-based, Canis lupus familiaris; details: in vivo
Canis familiaris [7] = experiment: Antidiabetic activity in Beagle dog assessed as reduction in blood glucose level at 10 mg/kg, po administered via gavage as single dose 90 mins prior to glucagon challenge measured up to 60 mins post glucagon challenge by glucometer analysis; assay type: functional, organism-based; details: Canis lupus familiaris
[8] = Clearance in dog at 2 mg/kg, iv or 10 mg/kg, po; assay type: ADME, organism-based, Canis lupus familiaris; details: in vivo
[9] = Half life in Sprague-Dawley rat at 2 mg/kg, iv; assay type: ADME, organism-based; details: in vivo
[10] = Volume of distribution at steady state in Sprague-Dawley rat at 2 mg/kg, iv or 10 mg/kg, po; assay type: ADME, organism-based; details: in vivo, read-out: Vdss
[11] = AUClast in Sprague-Dawley rat at 2 mg/kg, iv or 10 mg/kg, po; assay type: ADME, organism-based; details: in vivo
[12] = Oral bioavailability in dog at 10 mg/kg; assay type: ADME, organism-based, Canis lupus familiaris; details: in vivo
Cytochrome P450 3A4 [13] = biological target: T1, Cytochrome P450 3A4 (Homo sapiens, UniProt P08684); experiment: Inhibition of CYP3A4 (unknown origin) using testosterone as substrate; assay type: ADME
T1 sequence (P08684 whole entry): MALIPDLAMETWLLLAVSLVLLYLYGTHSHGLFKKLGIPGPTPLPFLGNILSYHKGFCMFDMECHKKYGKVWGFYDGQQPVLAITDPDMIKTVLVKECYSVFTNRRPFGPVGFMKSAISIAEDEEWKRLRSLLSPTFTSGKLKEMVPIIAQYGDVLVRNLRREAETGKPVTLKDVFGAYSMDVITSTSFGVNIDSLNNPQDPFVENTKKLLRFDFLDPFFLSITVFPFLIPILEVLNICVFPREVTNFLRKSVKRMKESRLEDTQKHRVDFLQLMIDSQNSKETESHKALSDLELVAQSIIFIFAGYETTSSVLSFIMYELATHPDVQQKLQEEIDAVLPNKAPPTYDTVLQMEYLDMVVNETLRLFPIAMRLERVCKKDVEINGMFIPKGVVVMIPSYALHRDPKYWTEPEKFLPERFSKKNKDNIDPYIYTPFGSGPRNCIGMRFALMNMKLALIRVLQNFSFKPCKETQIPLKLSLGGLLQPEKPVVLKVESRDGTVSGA

Cytochrome P450 3A4 [14] = biological target: T1, Cytochrome P450 3A4; experiment: Inhibition of CYP3A4 (unknown origin) using midazolam as substrate; assay type: ADME
Cytochrome P450 2D6 = Cytochrome P450 2D6 (Homo sapiens, UniProt P10635); experiment: Inhibition of CYP2D6 (unknown origin) using dextromethorphan as substrate; assay type: ADME
Cytochrome P450 2D6, sequence (P10635 whole entry): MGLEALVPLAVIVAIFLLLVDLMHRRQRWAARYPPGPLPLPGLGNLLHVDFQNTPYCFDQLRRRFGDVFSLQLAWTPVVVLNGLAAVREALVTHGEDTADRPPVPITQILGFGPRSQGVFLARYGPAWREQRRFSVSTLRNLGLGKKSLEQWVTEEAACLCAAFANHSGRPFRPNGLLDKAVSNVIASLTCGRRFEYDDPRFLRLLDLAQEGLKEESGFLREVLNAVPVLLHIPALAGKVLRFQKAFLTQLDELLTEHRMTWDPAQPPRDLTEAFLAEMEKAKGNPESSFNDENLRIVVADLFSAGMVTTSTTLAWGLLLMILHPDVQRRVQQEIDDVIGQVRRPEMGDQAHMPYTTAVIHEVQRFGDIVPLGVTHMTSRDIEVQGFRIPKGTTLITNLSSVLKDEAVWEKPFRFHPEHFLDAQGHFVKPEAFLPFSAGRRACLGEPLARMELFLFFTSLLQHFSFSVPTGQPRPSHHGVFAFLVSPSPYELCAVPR

[15] = Cmax in dog at 2 mg/kg, iv or 10 mg/kg, po; assay type: ADME, organism-based, Canis lupus familiaris; details: in vivo
[16] = AUClast in dog at 2 mg/kg, iv or 10 mg/kg, po; assay type: ADME, organism-based, Canis lupus familiaris; details: in vivo
[17] = Protein binding in human plasma at 1 uM; assay type: ADME, cell-free; details: read-out: PPB
[18] = Volume of distribution at steady state in C57 mouse at 5 mg/kg, iv or 20 mg/kg, po; assay type: ADME, organism-based; details: in vivo, read-out: Vdss
[19] = Cmax in Sprague-Dawley rat at 2 mg/kg, iv or 10 mg/kg, po; assay type: ADME, organism-based; details: in vivo
[20] = Cmax in C57 mouse at 5 mg/kg, iv or 20 mg/kg, po; assay type: ADME, organism-based; details: in vivo
[21] = Oral bioavailability in Sprague-Dawley rat at 10 mg/kg; assay type: ADME, organism-based; details: in vivo
[22] = Half life in C57 mouse at 5 mg/kg, iv; assay type: ADME, organism-based; details: in vivo
[23] = Clearance in Sprague-Dawley rat at 2 mg/kg, iv or 10 mg/kg, po; assay type: ADME, organism-based; details: in vivo
[24] = Volume of distribution at steady state in dog at 2 mg/kg, iv or 10 mg/kg, po; assay type: ADME, organism-based, Canis lupus familiaris; details: in vivo, read-out: Vdss
Cytochrome P450 1A2 = biological target: T2, Cytochrome P450 1A2 (Homo sapiens, UniProt P05177); experiment: Inhibition of CYP1A2 (unknown origin) using phenacetin as substrate; assay type: ADME
T2 sequence (P05177 whole entry): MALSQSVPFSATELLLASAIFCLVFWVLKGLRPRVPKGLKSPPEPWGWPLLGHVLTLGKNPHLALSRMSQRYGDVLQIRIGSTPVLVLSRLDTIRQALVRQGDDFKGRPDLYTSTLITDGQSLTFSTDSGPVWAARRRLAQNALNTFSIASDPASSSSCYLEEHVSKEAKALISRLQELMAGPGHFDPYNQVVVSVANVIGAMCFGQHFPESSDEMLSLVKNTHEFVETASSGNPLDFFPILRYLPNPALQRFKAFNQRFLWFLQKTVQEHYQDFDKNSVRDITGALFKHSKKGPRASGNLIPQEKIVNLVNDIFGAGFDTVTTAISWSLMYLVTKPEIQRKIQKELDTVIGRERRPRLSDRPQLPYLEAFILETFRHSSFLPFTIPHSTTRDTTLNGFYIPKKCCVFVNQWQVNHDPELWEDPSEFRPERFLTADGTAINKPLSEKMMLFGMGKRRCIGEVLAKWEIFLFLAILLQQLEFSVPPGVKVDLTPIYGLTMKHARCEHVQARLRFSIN

[25] = AUClast in C57 mouse at 5 mg/kg, iv or 20 mg/kg, po; assay type: ADME, organism-based; details: in vivo
Cytochrome P450 2C19 = Cytochrome P450 2C19 (Homo sapiens, UniProt P33261); experiment: Inhibition of CYP2C19 (unknown origin) using S-Mephenytoin as substrate; assay type: ADME
Cytochrome P450 2C19, sequence (P33261 whole entry): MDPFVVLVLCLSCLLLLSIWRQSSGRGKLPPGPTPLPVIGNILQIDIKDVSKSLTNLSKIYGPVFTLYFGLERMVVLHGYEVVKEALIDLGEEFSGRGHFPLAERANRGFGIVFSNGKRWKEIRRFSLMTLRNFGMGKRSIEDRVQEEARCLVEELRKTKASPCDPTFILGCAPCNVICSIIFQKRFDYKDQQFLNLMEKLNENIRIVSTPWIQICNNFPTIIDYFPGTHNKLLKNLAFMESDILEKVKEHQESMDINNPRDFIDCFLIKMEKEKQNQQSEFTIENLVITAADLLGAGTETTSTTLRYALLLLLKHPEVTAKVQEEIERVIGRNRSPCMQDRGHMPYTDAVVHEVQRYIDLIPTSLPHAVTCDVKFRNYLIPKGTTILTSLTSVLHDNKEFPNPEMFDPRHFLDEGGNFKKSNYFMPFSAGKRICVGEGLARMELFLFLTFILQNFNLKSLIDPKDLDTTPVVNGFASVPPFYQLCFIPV

Cytochrome P450 2C9 = Cytochrome P450 2C9 (Homo sapiens, UniProt P11712); experiment: Inhibition of CYP2C9 (unknown origin) using tolbutamide as substrate; assay type: ADME
Cytochrome P450 2C9, sequence (P11712 whole entry): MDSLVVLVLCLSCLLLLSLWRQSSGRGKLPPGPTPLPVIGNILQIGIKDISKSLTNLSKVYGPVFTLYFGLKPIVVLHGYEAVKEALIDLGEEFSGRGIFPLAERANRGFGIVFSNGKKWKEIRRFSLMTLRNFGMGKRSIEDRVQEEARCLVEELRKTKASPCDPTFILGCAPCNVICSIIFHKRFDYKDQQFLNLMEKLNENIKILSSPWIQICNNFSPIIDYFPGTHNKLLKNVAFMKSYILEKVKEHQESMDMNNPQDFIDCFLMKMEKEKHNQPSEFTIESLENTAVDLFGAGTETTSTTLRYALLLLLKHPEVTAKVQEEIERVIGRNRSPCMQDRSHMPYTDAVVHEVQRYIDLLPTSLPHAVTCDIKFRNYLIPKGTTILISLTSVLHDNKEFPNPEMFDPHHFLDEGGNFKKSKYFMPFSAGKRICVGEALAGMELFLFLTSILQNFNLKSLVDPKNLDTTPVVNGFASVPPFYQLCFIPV

[26] = Antagonist activity at GCGR in dog hepatocytes assessed as inhibition of glucagon-induced cAMP by LANCE TR-FRET assay; assay type: cell-based, Canis lupus familiaris
[27] = Oral bioavailability in C57 mouse at 20 mg/kg; assay type: ADME, organism-based; details: in vivo
Canis familiaris [28] = experiment: Antidiabetic activity in Beagle dog assessed as reduction in blood glucose AUC at 10 mg/kg, po administered via gavage as single dose 90 mins prior to glucagon challenge by glucometer analysis; assay type: functional, organism-based; details: Canis lupus familiaris
[29] = Half life in C57 mouse at 20 mg/kg, po; assay type: ADME, organism-based; details: in vivo
Glucagon receptor = Glucagon receptor (Homo sapiens, UniProt P47871); experiment: Inhibition of human full length GCGR transfected in HEK293 cells assessed as reduction in glucagon-induced cAMP response by LANCE TR-FRET assay; assay type: functional, cell-based
Glucagon receptor, sequence (P47871 whole entry): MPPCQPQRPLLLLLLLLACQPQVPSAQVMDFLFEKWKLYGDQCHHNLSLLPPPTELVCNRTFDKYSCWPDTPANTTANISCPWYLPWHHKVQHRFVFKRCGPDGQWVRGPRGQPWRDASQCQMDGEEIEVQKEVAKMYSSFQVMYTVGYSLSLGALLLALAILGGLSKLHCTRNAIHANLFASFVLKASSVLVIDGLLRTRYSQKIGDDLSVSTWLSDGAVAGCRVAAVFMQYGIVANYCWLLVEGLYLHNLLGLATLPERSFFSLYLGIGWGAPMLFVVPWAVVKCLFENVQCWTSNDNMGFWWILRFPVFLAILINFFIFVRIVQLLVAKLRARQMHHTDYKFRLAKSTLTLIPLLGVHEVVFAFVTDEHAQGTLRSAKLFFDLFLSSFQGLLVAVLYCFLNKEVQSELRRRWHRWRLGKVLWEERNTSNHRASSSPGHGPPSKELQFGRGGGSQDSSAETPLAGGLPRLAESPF

[30] = Half life in dog at 2 mg/kg, iv; assay type: ADME, organism-based, Canis lupus familiaris; details: in vivo
[31] = Half life in Sprague-Dawley rat at 10 mg/kg, po; assay type: ADME, organism-based; details: in vivo

SMILES: Cc1c(-c2ccc(C(F)(F)F)cc2Cl)ccc2c1cnn2[C@@H](CC(C)C)c1ccc(C(=O)NCCC(=O)O)cc1
remaining at 10 min, 1 µM [1]: 89% | remaining at 10 min, 1 µM [2]: 87% | Stability ([3]; microsomes, 10 min, 1 µM): 121% | remaining at 10 min, 1 µM [4]: 31%

SMILES: CC(C)CC(c1ccc(C(=O)NCCC(=O)O)cc1)n1ncc2cc(-c3ccc(C(F)(F)F)cc3)ccc21 (racemic)
Ki (Glucagon receptor): 0.125 µM

SMILES: COc1c(-c2ccc(C(F)(F)F)cc2Cl)ccc2c1cnn2[C@@H](CC(C)C)c1ccc(C(=O)NCCC(=O)O)cc1
remaining at 10 min, 1 µM [1]: 93% | remaining at 10 min, 1 µM [2]: 97% | remaining at 10 min, 1 µM [3]: 87% | remaining at 10 min, 1 µM [4]: 64%

SMILES: COc1c(-c2ccc(C(F)(F)F)cc2Cl)ccc2nn([C@@H](CC(C)C)c3ccc(C(=O)NCCC(=O)O)cc3)cc12
remaining at 10 min, 1 µM [1]: 89% | remaining at 10 min, 1 µM [2]: 84% | remaining at 10 min, 1 µM [3]: 82% | remaining at 10 min, 1 µM [4]: 76%

More lines, main results first:

clearance [5]: 10.2 mL/min/kg | half-life [6]: 7.3 h | clearance [8]: 0.42 mL/min/kg | half-life [9]: 1.9 h | Vd [10]: 2.46 L/kg | AUC(0-t) [11]: 1.4 µM·h | bioavailability [12]: 35.7% | IC50 (Cytochrome P450 3A4 [13]): > 10 µM | IC50 (Cytochrome P450 3A4 [14]): > 10 µM | IC50 (Cytochrome P450 2D6): > 10 µM | Cmax [15]: 21.9 µM | AUC(0-t) [16]: 248 µM·h | remaining at 10 min, 1 µM [1]: 118% | remaining at 10 min, 1 µM [2]: 107% | fraction unbound at 1 µM [17]: 0.0001 | Vd [18]: 2.24 L/kg | remaining at 10 min, 1 µM [3]: 97% | Cmax [19]: 0.2 µM | Cmax [20]: 7.6 µM | bioavailability [21]: 13.2% | half-life [22]: 2.8 h | clearance [23]: 26.5 mL/min/kg | Vd [24]: 0.17 L/kg | IC50 (Cytochrome P450 1A2): > 10 µM | AUC(0-t) [25]: 44.9 µM·h | IC50 (Cytochrome P450 2C19): > 10 µM | IC50 (Cytochrome P450 2C9): > 10 µM | Ki [26]: 0.09 µM | remaining at 10 min, 1 µM [4]: 75% | bioavailability [27]: 78.6% | half-life [29]: 3.1 h | Ki (Glucagon receptor): 0.023 µM | half-life [30]: 5.5 h | half-life [31]: 7.7 h
SMILES: Cc1c(-c2ccc(C(F)(F)F)cc2Cl)ccc2nn([C@@H](CC(C)C)c3ccc(C(=O)NCCC(=O)O)cc3)cc12
inhibition (Canis familiaris [7]): Active | inhibition (Canis familiaris [28]): Active

clearance [5]: 4.78 mL/min/kg | half-life [6]: 20.2 h | clearance [8]: 0.19 mL/min/kg | half-life [9]: 3.7 h | Vd [10]: 2.94 L/kg | AUC(0-t) [11]: 9.2 µM·h | bioavailability [12]: 45% | IC50 (Cytochrome P450 3A4 [13]): > 10 µM | IC50 (Cytochrome P450 3A4 [14]): > 10 µM | IC50 (Cytochrome P450 2D6): > 10 µM | Cmax [15]: 35 µM | AUC(0-t) [16]: 468 µM·h | remaining at 10 min, 1 µM [1]: 57% | remaining at 10 min, 1 µM [2]: 113% | fraction unbound at 1 µM [17]: 0.0001 | Vd [18]: 1.56 L/kg | remaining at 10 min, 1 µM [3]: 79% | Cmax [19]: 1.1 µM | Cmax [20]: 7.9 µM | bioavailability [21]: 32.3% | half-life [22]: 4.5 h | clearance [23]: 12.7 mL/min/kg | Vd [24]: 0.26 L/kg | IC50 (Cytochrome P450 1A2): > 10 µM | AUC(0-t) [25]: 90.1 µM·h | IC50 (Cytochrome P450 2C19): > 10 µM | IC50 (Cytochrome P450 2C9): > 10 µM | Ki [26]: 0.65 µM | remaining at 10 min, 1 µM [4]: 68% | bioavailability [27]: 74.4% | half-life [29]: 5 h | half-life [30]: 21.7 h | half-life [31]: 4.3 h
SMILES: Cc1cc(C(F)(F)F)ccc1-c1cc2cn([C@@H](CC(C)C)c3ccc(C(=O)NCCC(=O)O)cc3)nc2cc1C

Ki (Glucagon receptor): 0.096 µM
SMILES: CC(C)C[C@H](c1ccc(C(=O)NCCC(=O)O)cc1)n1ncc2cc(-c3ccc(C(F)(F)F)cc3)ccc21
